Legend:
Type in all cases: cell-based, mouse
[1] = test system: α7 integrin (LacZ reporter in α7+/LacZ myotubes); experiment: Myotube α7 integrin FDG assay (Burkin assay in myotubes, 96-well); conditions: myotubes
[2] = test system: β-galactosidase in CMV-LacZ C2C12 myoblasts; experiment: CMV-LacZ secondary screen in C2C12 myoblasts (β-Gal stabilizing assay); conditions: CMV-LacZ C2C12 myoblasts
How it was run: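 First, C2C12 myoblasts were transfected with a linearized CMV-LACZ vector and clonal lines selected by FDG β-gal assay. Then cells were exposed to compounds at 0.5, 1, 5, 10, 20 and 40 μM in 96-well format, two replicates each, and β-gal measured.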

[3] = test system: β-galactosidase in CMV-LacZ C2C12 myotubes; experiment: CMV-LacZ secondary screen in C2C12 myotubes (β-Gal stabilizing assay); conditions: C2C12 CMV-LacZ myotubes, fold relative to DMSO
How it was run: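 CMV-LacZ C2C12 line (clonal, FDG-screened); myoblasts/myotubes dosed 0.5–40 μM (0.5, 1, 5, 10, 20, 40 μM); n=2 per point; β-gal stabilization read-out.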

[4] = test system: α7 integrin (LacZ reporter in α7βgal+/− myoblasts); experiment: Myoblast α7+/LacZ integrin FDG assay (Burkin assay in myoblasts, 96-well); conditions: α7+/LacZ myoblasts, 96-well

SMILES | Burkin Assay in Myotubes, α7 integrin LacZ reporter signal relative to DMSO ([1]; 0.5 uM) | Burkin Assay in Myotubes, α7 integrin LacZ reporter signal relative to DMSO ([1]; 1 uM) | Burkin Assay in Myotubes, α7 integrin LacZ reporter signal relative to DMSO ([1]; 5 uM) | Burkin Assay in Myotubes, α7 integrin LacZ reporter signal relative to DMSO ([1]; 10 uM) | Burkin Assay in Myotubes, α7 integrin LacZ reporter signal relative to DMSO ([1]; 20 uM) | Burkin Assay in Myotubes, α7 integrin LacZ reporter signal relative to DMSO ([1]; 40 uM) | CMV-LACZ in Myoblasts (β-galactosidase activity relative to DMSO) ([2]; 0.5 uM) | CMV-LACZ in Myoblasts (β-galactosidase activity relative to DMSO) ([2]; 1 uM) | CMV-LACZ in Myoblasts (β-galactosidase activity relative to DMSO) ([2]; 5 uM) | CMV-LACZ in Myoblasts (β-galactosidase activity relative to DMSO) ([2]; 10 uM) | CMV-LACZ in Myoblasts (β-galactosidase activity relative to DMSO) ([2]; 20 uM) | CMV-LACZ in Myoblasts (β-galactosidase activity relative to DMSO) ([2]; 40 uM) | CMV-LACZ in Myotubes, signal relative to DMSO ([3]; 0.5 uM) | CMV-LACZ in Myotubes, signal relative to DMSO ([3]; 1 uM) | CMV-LACZ in Myotubes, signal relative to DMSO ([3]; 5 uM) | CMV-LACZ in Myotubes, signal relative to DMSO ([3]; 10 uM) | CMV-LACZ in Myotubes, signal relative to DMSO ([3]; 20 uM) | CMV-LACZ in Myotubes, signal relative to DMSO ([3]; 40 uM) | Burkin Assay in Myoblasts, signal relative to DMSO ([4]; 0.5 uM) | Burkin Assay in Myoblasts, signal relative to DMSO ([4]; 1 uM) | further results
CN(/C(=N/S(=O)(=O)c1cccs1)c1ccccc1)c1ccccc1 [MLS000582947-01] | 0.9003 | 1.155 | 1.02 | 0.9759 | 1.102 | 0.791 | 0.9691 | 0.8991 | 1.1273 | 1.0067 | 0.7811 | 0.8819 | 0.8848 | 0.9610 | 0.9280 | 0.9127 | 1.0729 | 1.0247 | 1.236 | 0.9632 | Burkin Assay in Myoblasts, signal relative to DMSO ([4]; 5 uM): 0.943; Burkin Assay in Myoblasts, signal relative to DMSO ([4]; 10 uM): 0.9807; Burkin Assay in Myoblasts, signal relative to DMSO ([4]; 20 uM): 0.9417; Burkin Assay in Myoblasts, signal relative to DMSO ([4]; 40 uM): 0.7737
CC1CC(C)(C)NC(=S)N1CC(=O)N(C)Cc1ccccc1 (stereo not drawn) [MLS000586245-01] | 1.003 | 0.9584 | 1.043 | 1.179 | 0.9426 | 1.026 | 0.9034 | 0.8985 | 0.9258 | 1.0505 | 0.7726 | 0.7674 | 1.0611 | 1.0800 | 0.9511 | 1.1338 | 1.2267 | 1.2656 | 0.9903 | 1.049 | Burkin Assay in Myoblasts, signal relative to DMSO ([4]; 5 uM): 1.116; Burkin Assay in Myoblasts, signal relative to DMSO ([4]; 10 uM): 1.244; Burkin Assay in Myoblasts, signal relative to DMSO ([4]; 20 uM): 1.033; Burkin Assay in Myoblasts, signal relative to DMSO ([4]; 40 uM): 1.021
Cc1ccc(N2C(=O)C3NN=C(C(=O)OCc4ccccc4)C3C2=O)cc1 (stereo not drawn) [MLS000588210-01] | 0.9425 | 0.9559 | 0.9466 | 0.9155 | 0.9763 | 0.9565 | 1.2908 | 0.9782 | 0.7808 | 0.9316 | 1.0307 | 0.9000 | 1.1263 | 1.0853 | 0.9182 | 1.0815 | 1.1322 | 1.1656 | 1.055 | 0.9707 | Burkin Assay in Myoblasts, signal relative to DMSO ([4]; 5 uM): 0.9002; Burkin Assay in Myoblasts, signal relative to DMSO ([4]; 10 uM): 0.9816; Burkin Assay in Myoblasts, signal relative to DMSO ([4]; 20 uM): 1.136; Burkin Assay in Myoblasts, signal relative to DMSO ([4]; 40 uM): 0.9611
O=C(CNC(=O)c1cccc(F)c1)N/N=C/c1cc(Br)ccc1OCc1ccccc1 [MLS000591667-01] | 1.005 | 1.1434 | 1.072 | 0.9986 | 0.6781 | 0.6965 | 0.9491 | 0.7850 | 1.1587 | 1.1592 | 0.8030 | 1.0593 | 0.8600 | 1.0726 | 1.0824 | 1.0152 | 0.8929 | 0.8800 | 0.9901 | 1.034 | Burkin Assay in Myoblasts, signal relative to DMSO ([4]; 5 uM): 1.132; Burkin Assay in Myoblasts, signal relative to DMSO ([4]; 10 uM): 1.088; Burkin Assay in Myoblasts, signal relative to DMSO ([4]; 20 uM): 0.8623; Burkin Assay in Myoblasts, signal relative to DMSO ([4]; 40 uM): 1.1351
COC(=O)c1ccccc1NC(=O)CSc1nc(O)c(-c2ccccc2)c(=O)[nH]1 [MLS000621451-01] | 0.9471 | 0.8932 | 0.9254 | 1.071 | 0.8327 | 1.024 | 1.0388 | 1.1579 | 0.9255 | 1.3023 | 1.2493 | 1.1926 | 1.1114 | 0.9295 | 1.0177 | 1.1398 | 0.9853 | 0.9695 | 1.065 | 1.018 | Burkin Assay in Myoblasts, signal relative to DMSO ([4]; 5 uM): 1.066; Burkin Assay in Myoblasts, signal relative to DMSO ([4]; 10 uM): 1.114; Burkin Assay in Myoblasts, signal relative to DMSO ([4]; 20 uM): 1.0713; Burkin Assay in Myoblasts, signal relative to DMSO ([4]; 40 uM): 1.088
Cc1ccc(C(=O)N2CCN(S(=O)(=O)N3CCOCC3)CC2)cc1 [MLS000663185-01] | 0.968 | 0.8137 | 0.9767 | 1.0708 | 0.7791 | 1.118 | 1.1390 | 1.1477 | 0.9688 | 0.8567 | 0.9211 | 0.9347 | 1.0924 | 0.9800 | 0.9322 | 0.8722 | 0.9540 | 1.1270 | 1.109 | 0.9744 | Burkin Assay in Myoblasts, signal relative to DMSO ([4]; 5 uM): 1.399; Burkin Assay in Myoblasts, signal relative to DMSO ([4]; 10 uM): 0.9312; Burkin Assay in Myoblasts, signal relative to DMSO ([4]; 20 uM): 0.9222; Burkin Assay in Myoblasts, signal relative to DMSO ([4]; 40 uM): 0.8328
